Assay results taken from the NIST ThermoML archive (doi:10.1021/je0600552).
Numbers after ± are expanded uncertainties.

Experiments:
[1] = Crystal; DTA
[2] = Molar enthalpy of transition or fusion; conditions: Crystal; DSC

Normal melting temperature [1]: 195.30 ± 0.9 °C | Molar enthalpy of transition or fusion [2]: 6.43 ± 0.143 kcal/mol
Compound: Cc1ccc2[nH]c3c(c2c1)CCCC3=O [1-keto-1,2,3,4-tetrahydro-6-methylcarbazole]
